Test results from patent publication US20250280826A1, “PLANT GROWTH PROMOTER” (KAO CORPORATION, priority 2022, published 2025).

Tested on: Lotus japonicus
Assay: Example 8: number of pods and seed weight in Lotus japonicus
Format: in vivo
Settings: ascorbic acid 1,500 ppm, tap water vs deionized water
Description: Medium-term fertilizer effect type culture soil (Takii hydrous cell medium-term fertilizer effect type, Takii & Co., Ltd.) and vermiculite grains (Akagi-Engei Co., Ltd.) were mixed at a volume ratio of 1:1, and the soil was placed in a polypot (diameter: 6 cm, height: 5.5 cm).
The Lotus japonicus seeds used were Miyakojima MG-20 lineage. To a 2 mL microtube (Eppendorf) filled approximately ⅓ with the seeds, 1 mL of concentrated sulfuric acid (FUJIFILM Wako Pure Chemical Corporation) was added and allowed to stand for 10 minutes. After rinsing five times with tap water, the seeds were soaked for two hours. After tap water was supplied in an amount of 100 mL per pot, 3 seeds, which had undergone germination treatment, per pot were each sown at a depth of from about 1 to 2 cm from the soil surface. The number of repeats in each test plot was 8 (n=8). […]
For the preparation of the spraying solutions, BHT of the component (B) was previously dissolved in the component (C), and the components (C) and (D) were then mixed to prepare a second agent. […] The number of pods and seed weight of each plant were measured.

## O=C1O[C@H]([C@@H](O)CO)C(O)=C1O [ascorbic acid, (R)-3,4-dihydroxy-5-((S)-1,2-dihydroxyethyl)furan-2(5H)-one]
  effects on the seed weight: varied in accordance with the water quality
